Experimental data published in PubChem BioAssay AID2060497 (Molecular Pharmacology Branch, DTP, NCI, 2025).

Test system: 317291-083-R-J1-PDC complex spheroids, viability
Assay: Anticancer human tumor 317291-083-R-J1-PDC patient-derived soft tissue sarcoma cell line growth inhibition [GQUAD]
Conditions: for IC50: curve of first compound; for viability, T/C: stronger effect = lower value
How it was run: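 Viability of tumor cells grown as complex spheroids with endothelial and stromal cells, exposed to drug combinations. Top concentration at or near clinical Cmax (else 10 microM), diluted in half-log increments.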

[1] = second compound 0.0316 µM, first compound 0.0316 µM
[2] = second compound 0.0316 µM, first compound 0.1 µM
[3] = second compound 0.0316 µM, first compound 0.316 µM
[4] = second compound 0.0316 µM, first compound 1 µM
[5] = second compound 0.0316 µM, first compound 3.16 µM
[6] = second compound 0.0316 µM, first compound 10 µM
[7] = second compound 0.1 µM, first compound 0.0316 µM
[8] = second compound 0.1 µM, first compound 0.1 µM
[9] = second compound 0.1 µM, first compound 0.316 µM
[10] = second compound 0.1 µM, first compound 1 µM
[11] = second compound 0.1 µM, first compound 3.16 µM
[12] = second compound 0.1 µM, first compound 10 µM
[13] = second compound 0.316 µM, first compound 0.0316 µM
[14] = second compound 0.316 µM, first compound 0.1 µM
[15] = second compound 0.316 µM, first compound 0.316 µM
[16] = second compound 0.316 µM, first compound 1 µM
[17] = second compound 0.316 µM, first compound 3.16 µM
[18] = second compound 0.316 µM, first compound 10 µM
[19] = second compound 1 µM, first compound 0.0316 µM
[20] = second compound 1 µM, first compound 0.1 µM
[21] = second compound 1 µM, first compound 0.316 µM
[22] = second compound 1 µM, first compound 1 µM
[23] = second compound 1 µM, first compound 3.16 µM
[24] = second compound 1 µM, first compound 10 µM
[25] = second compound 3.16 µM, first compound 0.0316 µM
[26] = second compound 3.16 µM, first compound 0.1 µM
[27] = second compound 3.16 µM, first compound 0.316 µM
[28] = second compound 3.16 µM, first compound 1 µM
[29] = second compound 3.16 µM, first compound 3.16 µM
[30] = second compound 3.16 µM, first compound 10 µM
[31] = second compound 10 µM, first compound 0.0316 µM
[32] = second compound 10 µM, first compound 0.1 µM
[33] = second compound 10 µM, first compound 0.316 µM
[34] = second compound 10 µM, first compound 1 µM
[35] = second compound 10 µM, first compound 3.16 µM
[36] = second compound 10 µM, first compound 10 µM
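Also: spheroids exposed to compounds for one week before readout.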
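For viability, T/C in this document: percent viability relative to DMSO vehicle wells taken as 100%.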

CC(C)(O)C1CCC(Nc2ccc3ncc(-c4cccc(C(F)(F)F)c4)n3n2)CC1 (stereo not drawn) + Cc1[nH]c2ccc(F)cc2c1-c1nc2c3cccnc3c3ncccc3c2[nH]1
IC50 (second compound 0.0316 µM): 647 nM | IC50 (second compound 0.1 µM): 576 nM | IC50 (second compound 0.316 µM): 421 nM | IC50 (second compound 1 µM): 114 nM | IC50 (second compound 3.16 µM): < 31.6 nM | IC50 (second compound 10 µM): < 31.6 nM | viability, T/C [1]: 102% | viability, T/C [2]: 102% | viability, T/C [3]: 85.9% | viability, T/C [4]: 28.2% | viability, T/C [5]: 0.62% | viability, T/C [6]: 0.37% | viability, T/C [7]: 91% | viability, T/C [8]: 85% | viability, T/C [9]: 77.1% | viability, T/C [10]: 25.4% | viability, T/C [11]: 0.16% | viability, T/C [12]: 0.74% | viability, T/C [13]: 61.8% | viability, T/C [14]: 70.9% | viability, T/C [15]: 61.6% | viability, T/C [16]: 14.3% | viability, T/C [17]: 0.22% | viability, T/C [18]: 0.17% | viability, T/C [19]: 58.1% | viability, T/C [20]: 43% | viability, T/C [21]: 45.1% | viability, T/C [22]: 8.74% | viability, T/C [23]: 0.32% | viability, T/C [24]: 0.16% | viability, T/C [25]: 29.5% | viability, T/C [26]: 19.8% | viability, T/C [27]: 24.1% | viability, T/C [28]: 7.5% | viability, T/C [29]: 0.94% | viability, T/C [30]: 0.2% | viability, T/C [31]: 41% | viability, T/C [32]: 38.6% | viability, T/C [33]: 44.5% | viability, T/C [34]: 14.2% | viability, T/C [35]: 0.55% | viability, T/C [36]: 0.82%

COc1cc(C2c3cc4c(cc3C(OC3OC5COC(C)OC5C(O)C3O)C3COC(=O)C23)OCO4)cc(OC)c1O (stereo not drawn) + Cc1[nH]c2ccc(F)cc2c1-c1nc2c3cccnc3c3ncccc3c2[nH]1
IC50 (second compound 0.0316 µM): 432 nM | IC50 (second compound 0.1 µM): 276 nM | IC50 (second compound 0.316 µM): 260 nM | IC50 (second compound 1 µM): 260 nM | IC50 (second compound 3.16 µM): 192 nM | IC50 (second compound 10 µM): 222 nM | viability, T/C [1]: 103% | viability, T/C [2]: 93% | viability, T/C [3]: 59.5% | viability, T/C [4]: 25.2% | viability, T/C [5]: 17.9% | viability, T/C [6]: 16.5% | viability, T/C [7]: 96.2% | viability, T/C [8]: 102% | viability, T/C [9]: 43.5% | viability, T/C [10]: 28.3% | viability, T/C [11]: 17.6% | viability, T/C [12]: 9.83% | viability, T/C [13]: 113% | viability, T/C [14]: 92.7% | viability, T/C [15]: 40.6% | viability, T/C [16]: 22.5% | viability, T/C [17]: 14.5% | viability, T/C [18]: 18.4% | viability, T/C [19]: 84.7% | viability, T/C [20]: 94.5% | viability, T/C [21]: 41.8% | viability, T/C [22]: 20.2% | viability, T/C [23]: 13.6% | viability, T/C [24]: 13.2% | viability, T/C [25]: 80.8% | viability, T/C [26]: 70% | viability, T/C [27]: 34.5% | viability, T/C [28]: 16.7% | viability, T/C [29]: 16.1% | viability, T/C [30]: 10% | viability, T/C [31]: 73.1% | viability, T/C [32]: 57.6% | viability, T/C [33]: 47.7% | viability, T/C [34]: 17.7% | viability, T/C [35]: 11.9% | viability, T/C [36]: 16.9%

O=c1[nH]cc(F)c(=O)[nH]1 + Cc1cnc(CNC(=O)c2c(=O)c3ccc(N4CCCN(C)CC4)nc3n3c2sc2ccccc23)cn1
IC50 (second compound 0.0316 µM): 2110 nM | IC50 (second compound 0.1 µM): 1800 nM | IC50 (second compound 0.316 µM): 526 nM | IC50 (second compound 1 µM): < 31.6 nM | IC50 (second compound 3.16 µM): < 31.6 nM | IC50 (second compound 10 µM): < 31.6 nM | viability, T/C [1]: 101% | viability, T/C [2]: 96.3% | viability, T/C [3]: 103% | viability, T/C [4]: 64.6% | viability, T/C [5]: 44.3% | viability, T/C [6]: 24.6% | viability, T/C [7]: 68.2% | viability, T/C [8]: 69.3% | viability, T/C [9]: 60.9% | viability, T/C [10]: 79.8% | viability, T/C [11]: 31.3% | viability, T/C [12]: 24.7% | viability, T/C [13]: 51.8% | viability, T/C [14]: 50.6% | viability, T/C [15]: 71.5% | viability, T/C [16]: 40% | viability, T/C [17]: 34.7% | viability, T/C [18]: 23.3% | viability, T/C [19]: 35.2% | viability, T/C [20]: 25.6% | viability, T/C [21]: 31% | viability, T/C [22]: 32.7% | viability, T/C [23]: 23.6% | viability, T/C [24]: 22.5% | viability, T/C [25]: 31.2% | viability, T/C [26]: 29.8% | viability, T/C [27]: 25.6% | viability, T/C [28]: 49.5% | viability, T/C [29]: 22.6% | viability, T/C [30]: 15.1% | viability, T/C [31]: 21.4% | viability, T/C [32]: 28% | viability, T/C [33]: 14.6% | viability, T/C [34]: 26.5% | viability, T/C [35]: 25.7% | viability, T/C [36]: 16.4%

O=C(NO)c1cnc(N2CCN(S(=O)(=O)c3ccc4ccccc4c3)CC2)nc1 + Cc1cnc(CNC(=O)c2c(=O)c3ccc(N4CCCN(C)CC4)nc3n3c2sc2ccccc23)cn1
IC50 (second compound 0.0316 µM): 109 nM | IC50 (second compound 0.1 µM): < 31.6 nM | IC50 (second compound 0.316 µM): < 31.6 nM | IC50 (second compound 1 µM): < 31.6 nM | IC50 (second compound 3.16 µM): < 31.6 nM | IC50 (second compound 10 µM): < 31.6 nM | viability, T/C [1]: 82.5% | viability, T/C [2]: 53.5% | viability, T/C [3]: 7.38% | viability, T/C [4]: 0.63% | viability, T/C [5]: 0.05% | viability, T/C [6]: 0.08% | viability, T/C [7]: 47.2% | viability, T/C [8]: 41.8% | viability, T/C [9]: 6.03% | viability, T/C [10]: 0.12% | viability, T/C [11]: 0.03% | viability, T/C [12]: 0.29% | viability, T/C [13]: 44.2% | viability, T/C [14]: 45.2% | viability, T/C [15]: 5.28% | viability, T/C [16]: 0.07% | viability, T/C [17]: 0.02% | viability, T/C [18]: 0.62% | viability, T/C [19]: 43.9% | viability, T/C [20]: 15.2% | viability, T/C [21]: 2.02% | viability, T/C [22]: 0.07% | viability, T/C [23]: 0.04% | viability, T/C [24]: 0.08% | viability, T/C [25]: 8.49% | viability, T/C [26]: 0.73% | viability, T/C [27]: 1.12% | viability, T/C [28]: 1.06% | viability, T/C [29]: 0.08% | viability, T/C [30]: 0.11% | viability, T/C [31]: 0.07% | viability, T/C [32]: 0.11% | viability, T/C [33]: 0.16% | viability, T/C [34]: 0.1% | viability, T/C [35]: 0.18% | viability, T/C [36]: 0.18%
